Experiments:
[1] = biological target: T1, human TLR7 (Homo sapiens, UniProt Q9NYK1); experiment: human TLR7-specific reporter gene assay; type: cell-based
T1 sequence (Q9NYK1 27-1049): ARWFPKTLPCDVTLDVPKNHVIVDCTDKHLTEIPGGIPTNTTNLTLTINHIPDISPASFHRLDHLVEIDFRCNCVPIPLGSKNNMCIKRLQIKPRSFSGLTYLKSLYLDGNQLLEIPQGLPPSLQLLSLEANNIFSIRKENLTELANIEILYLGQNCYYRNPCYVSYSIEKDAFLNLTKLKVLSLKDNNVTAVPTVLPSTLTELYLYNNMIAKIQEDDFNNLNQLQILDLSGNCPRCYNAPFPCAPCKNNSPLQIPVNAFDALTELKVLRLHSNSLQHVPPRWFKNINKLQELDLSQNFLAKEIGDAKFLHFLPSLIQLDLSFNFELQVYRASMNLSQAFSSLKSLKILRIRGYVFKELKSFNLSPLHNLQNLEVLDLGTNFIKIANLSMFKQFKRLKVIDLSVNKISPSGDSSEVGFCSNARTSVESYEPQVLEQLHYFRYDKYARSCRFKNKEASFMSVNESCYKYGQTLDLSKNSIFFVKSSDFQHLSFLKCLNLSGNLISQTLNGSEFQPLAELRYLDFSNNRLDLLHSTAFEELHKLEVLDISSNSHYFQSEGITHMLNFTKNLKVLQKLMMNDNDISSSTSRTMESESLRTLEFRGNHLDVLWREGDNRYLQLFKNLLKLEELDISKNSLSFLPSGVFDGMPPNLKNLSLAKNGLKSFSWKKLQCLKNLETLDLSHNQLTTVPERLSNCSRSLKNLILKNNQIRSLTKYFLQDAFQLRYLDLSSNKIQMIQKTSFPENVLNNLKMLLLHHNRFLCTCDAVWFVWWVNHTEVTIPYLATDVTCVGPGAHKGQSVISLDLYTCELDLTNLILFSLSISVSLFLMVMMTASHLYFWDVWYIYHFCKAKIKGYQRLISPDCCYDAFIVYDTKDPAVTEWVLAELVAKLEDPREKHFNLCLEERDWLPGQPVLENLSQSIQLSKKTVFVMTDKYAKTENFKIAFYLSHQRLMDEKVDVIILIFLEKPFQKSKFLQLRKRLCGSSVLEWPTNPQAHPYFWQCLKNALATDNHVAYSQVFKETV

[2] = test system: human PBMCs; experiment: Induction of IFN-α, IFN-γ, IL-12 and IL-18 in human PBMCs, ELISA; type: cell-based
[3] = aqueous solubility; type: physicochemical

Row | SMILES | TLR7-agonistic activity (in words) [1] | Th1-biased cytokine induction (IFN-α, IFN-γ, IL-12, IL-18) [2] | aqueous solubility [3]
1 | CCCCc1nc2c(N)nc3ccccc3c2n1Cc1ccc(CNC(=O)CCN2C(=O)CC(SC[C@@H](NC(=O)CC[C@@H](N)C(=O)O)C(=O)NCC(=O)O)C2=O)cc1 (stereo partly shown) [6a] | completely inactive | – | –
2 | CCCCc1nc2c(N)nc3ccccc3c2n1Cc1ccc(CN)cc1 [compound 1] | – | prominent Th1 bias | excellent
3 | CCCCc1nc2c(N)nc3ccccc3c2n1Cc1ccc(CNC(=S)NCC(=O)NCC(=O)NCC(=O)OC)cc1 [compound 3] | active | – | –
